Row | melting point | SMILES
1 | 242 to 244 °C | O=C(O)CNC(=O)C1c2ccccc2C(=O)N1C1CC1 (configuration not stated)
2 | 134 to 136 °C | CCCCn1c(=O)[nH]c(=O)c2c1nc(CO)n2CCC
3 | 208 to 210 °C | c1cncc(-c2ncc[nH]2)c1
4 | 168 to 170 °C | O=C(O)CCN1C(=O)COc2ccccc21
5 | 85 to 87 °C | Cc1n[nH]c(C)c1C=O
6 | 139 to 141 °C | Cc1nc(CC(N)=NO)cs1
7 | 90 to 92 °C | Brc1cccc(-n2cnnn2)c1
8 | 203 to 205 °C | CNC(=O)c1c[nH]c2ccccc12
9 | 283 to 285 °C | Nc1nc(-c2ccc(N3CCCC3=O)cc2)cs1
10 | 272 to 274 °C | O=C(O)c1ccc(S(=O)(=O)N2CCc3ccccc3C2)cc1
11 | 61 to 65 °C | O=C(O)CCC(=O)N1CCOCC1
12 | 192 to 194 °C | O=C(O)C=Cc1cc(Br)ccc1OCc1ccccc1Cl
13 | 99 to 100 °C | Cc1nc(N)ccc1I
14 | 49 to 51 °C | CCOc1ccc(O)c(C=O)c1
15 | 79 to 81 °C | COc1cc(CN)c2ccccc2n1
16 | 50 to 57 °C | Cc1ccc(C(C)(C)CC(=O)O)cc1
17 | 145 to 147 °C | Cc1ccc(S(=O)(=O)N(CCC(=O)O)c2ccccc2)cc1
18 | 246 to 248 °C | O=Cc1c(-c2ccccc2)n(-c2ccccc2)c2ccccc12
19 | 89 to 91 °C | CN(C)C=C1C(=O)CCC1=O
20 | 180 to 182 °C | Cc1cc(-c2nnc3ccccn23)ccc1N
21 | 136 to 138 °C | Nc1cccc(N2C(=O)CC3(CCCC3)C2=O)c1
22 | 144 to 146 °C | CNC(=O)c1ccc(Cl)c(N)c1
23 | 125 to 127 °C | CS(=O)(=O)c1ccc(OCCCCC(=O)O)cc1

Row | melting point | SMILES
24 | 66 to 68 °C | O=C(O)CSCc1ccc(Cl)s1
25 | 177 to 179 °C | N#Cc1cccc(OCc2ccoc2C(=O)O)c1
26 | 82 to 84 °C | Cc1cc(C(=O)CCl)c(C)n1-c1ccc(Br)cc1
27 | 36 to 38 °C | N#Cc1cccc(C(F)(F)F)n1
28 | 153 to 157 °C | O=C(O)CNC(=O)C1CCCCC1
29 | 169 to 171 °C | NC(=O)c1ccc(NCc2ccccc2)c(N)c1
30 | 79 to 81 °C | O=C(O)CCCCCCN1C(=O)C=CC1=O
31 | 179 to 181 °C | COc1ccc2c(c1)-c1sc(N)nc1CC2
32 | 279 to 281 °C | O=C(O)c1cc2cc(Br)cc(Br)c2o1
33 | 178 to 180 °C | O=C(O)C1CNc2ccccc21 (configuration not stated)
34 | 71 to 73 °C | OCC1NCCc2ccccc21 (configuration not stated)
35 | 69 to 71 °C | N#Cc1ccc2c(n1)CCCC2
36 | 206 to 208 °C | Nc1cccc(-c2ccc(=O)[nH]n2)c1
37 | 179 to 181 °C | CCOc1ccc(C(N)=O)cn1
38 | 147 to 149 °C | C=CCNC(=O)c1nc(C(=O)O)cs1
39 | 113 to 115 °C | O=C(CCl)NC(=O)OCc1ccccc1
40 | 119 to 121 °C | CC(C)(C)OC(=O)NC(C(N)=NO)c1ccccc1OC(F)(F)F (configuration not stated)
41 | 91 to 93 °C | CCC(CC)NS(=O)(=O)c1ccc(Cl)nc1
42 | 60 to 62 °C | O=C(O)C1CSCN1C(=O)c1ccc(Cl)cc1 (configuration not stated)
43 | 205 to 207 °C | O=C(O)c1sc2cc(C(F)(F)F)ccc2c1Cl
44 | 142 to 144 °C | Nc1cc(-c2ccccc2)nn1CCO
45 | 128 to 130 °C | Nc1ccccc1-c1[nH]nc2c1CCC2
46 | 266 to 268 °C | O=c1[nH]ncc2c[nH]nc12

Row | melting point | SMILES
47 | 105 to 107 °C | CC(C)Oc1nnc(S)s1
48 | 99 to 101 °C | O=C(O)Cc1ccn(-c2ccccc2)n1
49 | 54 to 56 °C | COCC1(O)CCNCC1
50 | 44 to 46 °C | COc1ncccc1NC(=O)OCC(F)(F)F
51 | 236 to 238 °C | NS(=O)(=O)c1cc(C(=O)O)ccc1F
52 | 174 to 176 °C | NC(=O)NCC(=O)O
53 | 141 to 143 °C | CN(CC(=O)O)S(=O)(=O)c1ccc2c(c1)OCCO2
54 | 272 to 274 °C | Cc1c(C(=O)O)oc2c(Cl)cc(Br)cc12
55 | 76 to 78 °C | CCn1c(C(C)=O)nc2ccccc21
56 | 93 to 95 °C | CNCC(O)COc1ccc2c(c1)OCO2 (configuration not stated)
57 | 136 to 138 °C | O=C(O)CN(Cc1cccnc1)c1ccccc1
58 | 49 to 51 °C | COC(=O)c1ccc(C(F)(F)F)cc1SC
59 | 227 to 229 °C | N#CC(=Cc1ccco1)C(=O)O
60 | 155 to 157 °C | NC(=NO)c1cccc(CN2CCOCC2)c1
61 | 148 to 150 °C | CC(N)c1ccc(S(N)(=O)=O)cc1 (configuration not stated)
62 | 219 to 221 °C | Cn1c(=O)c2cc(N)cnc2n(C)c1=O
63 | 217 to 219 °C | O=C(O)c1cccc(C(=O)N2CCS(=O)(=O)CC2)n1
64 | 174 to 176 °C | Cc1nn(-c2ccccc2F)c(C)c1CC(=O)O
65 | 141 to 143 °C | COC(=O)COc1ccc([N+](=O)[O-])c2ccccc12
66 | 193 to 195 °C | Cc1nc(S)c2c(C)c(C)sc2n1
67 | 95 to 101 °C | CCN(CC)S(=O)(=O)c1cccc(-c2nnc(S)o2)c1
68 | 96 to 100 °C | CCCn1c(=O)[nH]c2ccccc21
69 | 110 to 112 °C | Cc1ccc(S(=O)(=O)Nc2cccc(Cl)c2)cc1N

Row | melting point | SMILES
70 | 182 to 184 °C | O=C(O)c1conc1-c1ccc(Cl)cc1
71 | 162 to 164 °C | CCCCCOc1ccc2cc(C(=O)O)[nH]c2c1
72 | 228 to 230 °C | CC1(c2ccc(S(C)(=O)=O)cc2)NC(=O)NC1=O (configuration not stated)
73 | 240 to 242 °C | NC(=S)c1cccc(C(=O)O)c1
74 | 103 to 105 °C | CCCC(C)(NC(=O)OCc1ccccc1)C(=O)O (configuration not stated)
75 | 58 to 60 °C | COc1ccc(C(N)c2ccccc2OC)cc1 (configuration not stated)
76 | 139 to 141 °C | N#Cc1cc(Br)c2cc[nH]c2c1
77 | 75 to 77 °C | Cc1nc(Cl)cc(-c2ccccn2)n1
78 | 73 to 75 °C | Cc1ccc(C(=O)Cc2ccccn2)cc1
79 | 123 to 125 °C | CN(C)c1nc(-c2ccccc2)c(C=O)s1
80 | 62 to 64 °C | O=C1CCC(C(=O)O)CC1
81 | 151 to 153 °C | Nc1ccc(N2CCCC2)c(S(=O)(=O)Nc2cccc(C(F)(F)F)c2)c1
82 | 99 to 101 °C | CC(C)Nc1ccc(C#N)cn1
83 | 183 to 185 °C | CS(=O)Cc1c(C(=O)O)sc2ccccc12 (configuration not stated)
84 | 199 to 201 °C | Cc1cc(C(=O)O)ccc1NC(=O)c1cccs1
85 | 188 to 190 °C | COc1ccc(-c2csc(N)n2)cc1Br
86 | 120 to 122 °C | CCN(CC)C(=O)c1ccc(O)cc1
87 | 139 to 141 °C | Nc1nc(-c2cccs2)c(-c2cccs2)s1
88 | 83 to 85 °C | CC(C(=O)OCc1ccccc1)S(N)(=O)=O (configuration not stated)
89 | 154 to 156 °C | O=C(O)CNC(=O)c1cc(F)cc(F)c1
90 | 212 to 214 °C | Cc1ccc(-c2nn(-c3ccc(F)cc3)cc2C(=O)O)cc1
91 | 149 to 151 °C | Cc1cc(F)ccc1-n1cc(O)c(C(=O)O)n1
92 | 82 to 84 °C | O=S(=O)(Cl)c1ccc(OCC2CCCCC2)cc1

Row | melting point | SMILES
93 | 87 to 89 °C | Nc1cccc(OCc2ccc(F)cc2)c1
94 | 77 to 79 °C | CC(C#N)CNC(=O)OC(C)(C)C (configuration not stated)
95 | 110 to 112 °C | O=C1NCCOc2ccccc21
96 | 249 to 251 °C | NC(=O)C1Cc2[nH]cnc2CN1 (configuration not stated)
97 | 199 to 201 °C | O=C(O)C=Cc1ccc(S(=O)(=O)N2CCc3ccccc32)cc1
98 | 75 to 77 °C | CCOC(=O)CN1CCN(S(=O)(=O)c2ccccc2)CC1
99 | 111 to 113 °C | CC(=O)N1CSCC1C(=O)O (configuration not stated)
100 | 227 to 229 °C | FC(F)(F)c1n[nH]c2ccncc12
101 | 182 to 184 °C | O=C(O)c1ccc(Oc2ccccc2Br)nc1
102 | 234 to 236 °C | CC1=C(C(=O)O)Cc2ccccc2O1
103 | 161 to 163 °C | NNC(=O)c1cn(-c2ccccc2)nc1-c1ccccc1
104 | 55 to 57 °C | CC(=O)c1ccc(F)cc1OC(F)F
105 | 153 to 155 °C | O=S1(=O)C=C(Nc2ccccc2)CC1
106 | 274 to 276 °C | COC(=O)c1ccc2c(=O)[nH]c(C)nc2c1
107 | 179 to 181 °C | Cc1c(C(=O)O)nnn1-c1cccc(Cl)c1
108 | 80 to 82 °C | CC(C)(CC(=O)O)CC(=O)N1CCOCC1
109 | 168 to 170 °C | O=C(CCl)N1CCN(C(=O)Nc2ccccc2)CC1
110 | 57 to 59 °C | O=C(CBr)c1ccc2c(c1)CCC2
111 | 152 to 154 °C | COc1cc(OC)c([N+](=O)[O-])cc1F
112 | 119 to 121 °C | CC(C)(C)c1ncc(N)cn1
113 | 164 to 166 °C | Nc1nc2ccccc2n1-c1ccc(F)cc1
114 | 169 to 171 °C | Nc1cc(C(=O)O)c(F)cc1F
115 | 118 to 120 °C | COc1ccc(C(NC(=O)CCl)c2ccc(OC)cc2)cc1

Row | melting point | SMILES
116 | 210 to 212 °C | O=C1CCc2cc(Br)c(F)cc2N1
117 | 229 to 231 °C | FC(F)(F)c1nc2c([nH]1)CCCC2
118 | 42 to 44 °C | Cc1nc(Cl)nc(C)c1Cc1ccccc1
119 | 100 to 102 °C | COc1cc(C=O)ccc1OC(=O)c1ccc(F)cc1
120 | 138 to 140 °C | O=C(O)Cc1cccc(OCc2ccncc2)c1
121 | 182 to 184 °C | Cc1ccc(NC(=O)C(=O)NN)cc1C
122 | 51 to 53 °C | CCCCc1nc(-c2cccc(O)c2)no1
123 | 151 to 153 °C | CN(c1ccccc1)S(=O)(=O)c1ccc(Cl)c(C(=O)O)c1
124 | 283 to 285 °C | O=C(O)c1ccc2c(c1)S(=O)(=O)N(C1CC1)C2=O
125 | 232 to 234 °C | Cc1cc(C(=O)O)c2c(Br)cccc2n1
126 | 233 to 235 °C | CC(C)C(=O)Nc1cc(C(=O)O)c(F)cc1F
127 | 169 to 171 °C | N#Cc1ccc(Cn2cnc(N)n2)cc1
128 | 167 to 169 °C | CC1CCCN1CC(=O)O (configuration not stated)
129 | 154 to 156 °C | CCc1n[nH]c(N)n1
130 | 107 to 109 °C | O=C(O)CCNC(=O)C1CC1
131 | 55 to 58 °C | COC(=O)c1ccc(CC#N)cc1
132 | 167 to 169 °C | Oc1nnc(S)n1CCc1ccccc1
133 | 26 to 28 °C | CN(C)c1cccc(Cl)c1C=O

Row | SMILES | melting point
134 | O=C(O)c1cn(Cc2ccccc2)c2ccccc12 | 192 to 194 °C
135 | O=C(c1ccc(Cl)cc1)c1ccccn1 | 63 to 65 °C
136 | C=CCNC(=O)NC(=O)CCl | 113 to 115 °C
137 | N#Cc1ccc(N2C(=O)NC(CCC(=O)O)C2=O)cc1 (configuration not stated) | 220 to 222 °C
138 | O=C1CC(c2ccccn2)CN1 (configuration not stated) | 79 to 81 °C
139 | O=c1cc(CCl)nc2scnn12 | 183 to 187 °C
140 | O=C1NC(=O)C2(CN3CCC2CC3)N1 (configuration not stated) | 298 to 300 °C
141 | FC(F)(F)c1ccc2nnc(C3CCCNC3)n2c1 (configuration not stated) | 226 to 228 °C
142 | NC(C(=O)O)c1ccc(Cl)cc1 (configuration not stated) | 219 to 221 °C
